Assay results from article PMC4941420, “A Rational Approach for the Identification of Non-Hydroxamate HDAC6-Selective Inhibitors” (Scientific Reports, 2016).

System: class I HDACs (HeLa nuclear extracts)
Experiment: HDAC activity of HeLa nuclear extracts (Fluor de Lys)
Format: biochemical, human
Details: 100 µM, mean ± SD (n=3) (Table S6)

Row | Compound | HeLa % of inhibition at 100 μM [%]
1 | COc1ccccc1OCc1ccc(C(=O)NN)o1 [AK-15] | -2.6 ± 3.0

Biological target: T1, HDAC6 (Homo sapiens, UniProt Q9UBN7)
T1 construct: purchased Sigma Aldrich or Reaction Biology Corporation
T1 sequence (Q9UBN7 1-1215): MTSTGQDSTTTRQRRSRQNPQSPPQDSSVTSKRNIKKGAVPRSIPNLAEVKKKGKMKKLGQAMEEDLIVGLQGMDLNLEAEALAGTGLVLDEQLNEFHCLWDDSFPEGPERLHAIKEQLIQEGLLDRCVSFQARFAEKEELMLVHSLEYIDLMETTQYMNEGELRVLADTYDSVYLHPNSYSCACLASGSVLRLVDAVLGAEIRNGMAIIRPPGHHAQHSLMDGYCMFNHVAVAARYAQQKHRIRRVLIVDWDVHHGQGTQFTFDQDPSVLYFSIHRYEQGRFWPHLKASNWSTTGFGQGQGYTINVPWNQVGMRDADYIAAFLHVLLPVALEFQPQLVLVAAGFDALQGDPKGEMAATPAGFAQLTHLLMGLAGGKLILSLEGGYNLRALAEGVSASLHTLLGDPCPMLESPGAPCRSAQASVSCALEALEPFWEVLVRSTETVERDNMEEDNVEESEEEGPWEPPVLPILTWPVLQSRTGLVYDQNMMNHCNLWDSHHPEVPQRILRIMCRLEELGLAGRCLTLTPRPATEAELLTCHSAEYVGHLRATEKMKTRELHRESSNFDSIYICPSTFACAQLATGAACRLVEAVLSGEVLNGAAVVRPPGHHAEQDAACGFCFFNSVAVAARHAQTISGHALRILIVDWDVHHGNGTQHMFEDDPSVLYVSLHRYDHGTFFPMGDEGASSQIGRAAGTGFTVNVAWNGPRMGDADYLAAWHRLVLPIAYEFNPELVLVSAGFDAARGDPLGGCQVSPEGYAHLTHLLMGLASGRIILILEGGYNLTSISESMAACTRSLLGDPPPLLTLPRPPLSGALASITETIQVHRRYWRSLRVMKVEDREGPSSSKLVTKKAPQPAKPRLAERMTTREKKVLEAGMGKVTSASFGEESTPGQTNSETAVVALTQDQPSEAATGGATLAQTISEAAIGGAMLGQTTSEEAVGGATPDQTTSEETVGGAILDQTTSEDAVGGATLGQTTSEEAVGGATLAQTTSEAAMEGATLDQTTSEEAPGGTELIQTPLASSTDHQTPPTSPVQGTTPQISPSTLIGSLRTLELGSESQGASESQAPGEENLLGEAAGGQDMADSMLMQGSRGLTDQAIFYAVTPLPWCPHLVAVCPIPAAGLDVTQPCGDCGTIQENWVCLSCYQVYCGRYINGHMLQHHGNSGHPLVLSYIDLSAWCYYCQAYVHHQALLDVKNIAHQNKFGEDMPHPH
Experiment: In vitro enzymatic assay HDAC6 (Fluor de Lys)
Format: biochemical
Details: 100 µM; mean ± SD (n=3)

Row | Compound | HDAC6 % of inhibition at 100 µM
2 | CC(C)C12CC3CC(CC(C(=O)NN)(C3)C1)C2 [AF-1] | 5.2 ± 1.5%
3 | C=CCn1c2ccccc2c2nnc(SC(CC)C(=O)Nc3ccc(S(N)(=O)=O)cc3)nc21 (stereo not drawn) [AG-3] | 16.3 ± 0. %
4 | CC(C)(C)CC(C)(C)c1ccc(OCC(=O)NN)c([N+](=O)[O-])c1 [AG-4] | 5.5 ± 2.9%
5 | N/N=C1\CCCc2c1[nH]c1ccc(C(=O)NN)cc21 [AH-1] | 26.9 ± 6.1%
6 | CC(C)c1ccc(OCc2cccc(C(=O)NN)c2)cc1 [AK-1] | 18.3 ± 0.1%
7 | Cn1cc(Br)c(C(=O)NN)n1 [AK-3] | 0.1 ± 2.3%
8 | NNC(=O)C12CC3CC(C1)CC(n1cnc(Cl)n1)(C3)C2 [AK-4] | 3.0 ± 0.3%
9 | NNC(=O)c1cc2nc(-c3cccs3)cc(C(F)(F)F)n2n1 [AK-7] | 31.1 ± 0.5% Self-fluorescence
10 | CC(C)Oc1cccc(C(=O)NN)c1 [AK-10] | 13.9 ± 17.9%
11 | Cc1nn(Cc2ccc(C(=O)NN)o2)c(C)c1Cl [AK-11] | 5.3 ± 19.9%
12 | Cc1c(C)n(Cc2ccccc2)c2ccc(C(=O)NN)cc12 [AK-12] | 28.2 ± 16.7%
13 | NNC(=O)CC12CC3CC(C1)CC(n1ncnn1)(C3)C2 [AK-13] | 23.7 ± 9.3%
14 | CCOc1ccc(OCc2ccc(C(=O)NN)o2)cc1 [AK-16] | 36.9 ± 11.3%
15 | CCOc1ccc(OCc2cccc(C(=O)NN)c2)cc1 [AK-17] | 35.5 ± 10.5%
16 | Cc1nnn(C23CC4CC(CC(C(=O)NN)(C4)C2)C3)n1 [AK-19] | 18.1 ± 4.0%
17 | NNC(=O)c1cc(Br)cs1 [AK-20] | 22.3 ± 8.7%
18 | CC(C)(C)C1CCC(C(=O)NN)CC1 (stereo not drawn) [AK-23] | 20.2 ± 10.9%
19 | NS(=O)(=O)c1ccc(N2N=C(C(F)(F)F)/C(=C/c3ccc(-c4ccc(Cl)c(Cl)c4)o3)C2=O)cc1 [AN-1] | -43.0 ± 11.8%
20 | Cc1cccc(Cn2nnc3c(=O)n(CC(=O)Nc4ccc(S(N)(=O)=O)cc4)cnc32)c1 [AO-2] | -3.3 ± 5.4%
21 | C=CCn1c(SCC(=O)Nc2ccc(S(N)(=O)=O)cc2)nnc1-c1sc(N)nc1C [AS-1] | -1.8 ± 11.1%

The next lines start with the values.

Row | HDAC6 % of inhibition at 100 µM | Compound
22 | -2.8 ± 9.7% Self-fluorescence | COc1cc(/C=C2/SC(N)=NC2=O)ccc1OCc1ccc(Cl)cc1Cl [AG-2]
23 | 12.1 ± 1.6% | Cc1ccccc1COc1ccc(/C=N/NC(N)=S)cc1 [AH-2]
24 | 15.3 ± 0.5% | NNC(=O)c1cccc(COc2cc(Cl)ccc2Cl)c1 [AK-6]
25 | 8.0 ± 4.6% | CCOc1cc(/C=N/O)cc(Cl)c1OC [AK-9]
26 | 42.1 ± 23.0% | COc1ccccc1OCc1ccc(C(=O)NN)o1 [AK-15]
27 | 25.4 ± 9.7% | NNC(=O)c1cccc(COc2ccccc2Br)c1 [AK-22]
28 | 29.1 ± 10.3% | NNC(=O)c1ccc(COc2ccc(Cl)cc2Cl)o1 [AK-25]
29 | 4.9 ± 8.2% Self-fluorescence | COc1cc(/C=N/NC(N)=S)ccc1OCC(=O)Nc1ccc(Br)c(Cl)c1 [AN-2]
30 | -4.0 ± 3.9% Self-fluorescence | COc1cc(/C=N/NC(N)=S)ccc1OCC(=O)Nc1ccc(C)c(C)c1 [AN-3]
